Experimental data from patent US9974767B2, “Statins in the treatment of muscular dystrophies and myopathies” (University of Washington, priority 2014, dated 2018).
Entries after “also recorded” stand apart in the source; their conditions may differ.

Key:
mdx mice [1] = assay: H&E histology of tibialis anterior (TA) muscle; type: in vivo, mouse; conditions: mdx Sim vs mdx Con, 8 months treatment
WT mice = assay: H&E histology of TA muscle, wild type mice; type: in vivo, mouse; conditions: 8 months, 5-10 mg/kg/day
Protocol: The dose used (5-10 mg/kg/day) is equivalent to a low to moderate dose in humans.
DMD is a chronic, progressively degenerative disease and consequently potential treatments need to be effective over many years. […] The calculated dose given to the mice was between 5-10 mg/kg/day. This would equate to 20-40 mg/day for a 10 yea old DMD boy weighing 30 kg, based on mouse to human equivalence calculations, which is within the recommended dose range of statins for children.
Muscles were imbedded in O.C.T compound and frozen in isopentane cooled in liquid nitrogen. Cryosections (10 μm thick) were placed on a glass side. Sections were fixed with either ice-cold methanol or 2% paraformaldehyde for 5 to 10 min. Some sections were stained with Haemotoxylin and Eosin (H & E) using standard procedures. For immunofluorescence, sections were incubated in blocking buffer (0.8% BSA and 1% fish gelatin in PBS) for 45 min. […] For fluorescence quantification (CD68, fibronectin and myosin heavy chains), images were converted to grayscale in Image J and a threshold applied to calculate the area of fluorescence as a percent of the total area of the section. Fibers with central nuclei were expressed as a percent of total fibers with detectable nuclei (ie. both central and peripheral).

CD68 = CD68 immunofluorescence of TA muscle sections (inflammation); type: in vivo, mouse; conditions: mdx Sim vs mdx Con, 8 months treatment
Protocol: Next, we quantified the extent of inflammation, a key feature of the dystrophic muscle pathology, by immunofluorescence of TA muscle sections with CD68, a marker of macrophages and other inflammatory cells.
Muscles were imbedded in O.C.T compound and frozen in isopentane cooled in liquid nitrogen. Cryosections (10 μm thick) were placed on a glass side. Sections were fixed with either ice-cold methanol or 2% paraformaldehyde for 5 to 10 min. Some sections were stained with Haemotoxylin and Eosin (H & E) using standard procedures. For immunofluorescence, sections were incubated in blocking buffer (0.8% BSA and 1% fish gelatin in PBS) for 45 min. Primary antibodies; Fibronectin (Sigma), CD68 (Abcam), Caveolin3 (BD Biosciences), and Myosin Heavy Chain 1, 2A and 2B (Developmental Studies Hybridoma Bank) were added for 1 hr 30 min at room temperature. AlexaFluor conjugated secondary antibodies (Life Technologies) were then added for 1 hr 30 min. In some experiments, DAPI was also added to detect nuclei. […] For fluorescence quantification (CD68, fibronectin and myosin heavy chains), images were converted to grayscale in Image J and a threshold applied to calculate the area of fluorescence as a percent of the total area of the section. Fibers with central nuclei were expressed as a percent of total fibers with detectable nuclei (ie. both central and peripheral). […]

mdx mice [2] = assay: Diaphragm fibrosis (fibronectin immunofluorescence, hydroxyproline assay for collagen I); type: in vivo, mouse
Excerpt: In order to be a viable treatment approach for DMD, a drug must be efficacious at different stages of the disease and target both skeletal and cardiac muscle. […] Diaphragm force production progressively declines with age in both mdx mice and DMD. […] The replacement of muscle fibers with fibrotic connective tissue is a major cause of impaired muscle force generation in DMD and therefore an important therapeutic target. […] Quantification of total collagen I levels by hydroxyproline assay indicated a 50% reduction in fibrosis for mdx Sim mice.
The diaphragm most closely recapitulates the functional deficits and fibrotic deposition that occur in DMD. […] Quantification of total collagen I levels in diaphragm muscles by hydroxyproline assay also indicated a 50% reduction in fibrosis for mdx Sim mice (FIG. 13E).
Muscles were imbedded in O.C.T compound and frozen in isopentane cooled in liquid nitrogen. […] For fluorescence quantification (CD68, fibronectin and myosin heavy chains), images were converted to grayscale in Image J and a threshold applied to calculate the area of fluorescence as a percent of the total area of the section. Fibers with central nuclei were expressed as a percent of total fibers with detectable nuclei (ie. both central and peripheral).
To quantify muscle fibrosis, Collagen I content was measured using the hydroxyproline assay. […]

[3] = tested on: immortalized mdx myoblast cell line; assay: Differentiation of immortalized mdx myoblasts into myotubes; type: cell-based, mouse
Protocol: However, the statin concentrations required to induce these deleterious effects in vitro are typically 1 μM or greater. These concentrations are considerably (100-1000 times) higher than those found in vivo in mice and humans. […] We then carried out an in vitro experiment using an immortalized mdx myoblast cell line.
Immortomouse mdx myoblasts were grown on gelatin coated plates and until 70% confluence in DMEM supplemented with 10% HS, 20% FBS, 0.5% chicken embryo extract and 20 units/ml of γ-interferon. […] Myotubes were washed in PBS, fixed in ice-cold methanol for 10 min, and H&E stained. Images of myotubes were taken with a Nikon inverted microscope (W.M. Keck Center, University of Washington).

atrogin-1 = assay: Atrogin-1 mRNA in quadriceps muscles, qPCR; type: in vivo, mouse; conditions: old mdx Sim mice
Excerpt: Another pathway that has been implicated in statin myopathy is muscle atrophy mediated by atrogin-1, a ubiquitin-protein ligase that stimulates protein breakdown. Atrogin-1 is induced by statin treatment in animal models and humans with statininduced myopathy. However, in DMD, atrogin-1 levels are consistently lower than in normal muscle and are not increased at any stage of the disease.
Total RNA was isolated from quadriceps of WT, mdx, and simvastatintreated mdx mice using Trizol (Life Technologies) and further purified using an RNAeasy Kit (Qiagen). Real-time quantitative RT-PCR (qPCR) was performed using TaqMan chemistry and the ABI 7000 sequence detection system with 50 ng of RNA, ABI Fast Virus 1-Step Master Mix reagents, and primer sets specific for atrogin-1 and HPRT (Applied Biosystems). Data were obtained from 5 mice in each treatment group and normalized to the internal HPRT control.

## CCC(C)(C)C(=O)O[C@H]1C[C@@H](C)C=C2C=C[C@H](C)[C@H](CC[C@@H]3C[C@@H](O)CC(=O)O3)[C@H]21 [Simvastatin, simvastatin]
Mdx mice [1]
  number of centrally nucleated (regenerated) muscle fibers: comparable number
WT mice
  muscle histology of WT mice (damage, inflammation): no effect; also recorded: no evidence of muscle damage or inflammation
WT mice; listed as simvastatin
  muscle histology of WT mice (damage, inflammation): no effect
CD68
  reduction of inflammatory cell levels (CD68): ~70%
Mdx mice [2]; diaphragm sections, old mdx Sim vs mdx Con
  attenuation of fibrosis, fibronectin immunofluorescence: 50%
Mdx mice [2]; diaphragm, old mdx mice, 2 months treatment
  reduction in fibrosis, total collagen I levels by hydroxyproline assay: 50%
[3]; 50 to 500 nM, 3 days
  muscle differentiation, myotube formation: appeared similar to untreated cells
[3]; 3 days of treatment
  doses at which simvastatin became more toxic, number of viable cells decreased: ≥ 1 µM
atrogin-1
  atrogin-1 mRNA levels: not significantly different from mdx Con
